ChEMBL document CHEMBL1123820 (J Med Chem, 1987)
Active and inactive are the calls of the source. The rule behind the calls is not given here. Where a SMILES comes first, the peptide text is derived from it. [ ]: non-standard residue; d: D form. The star is where a group is joined. Orn = NCCC[C@H](N)C(=O)O; OBn = c1ccc(CO*)cc1

How the values were obtained:
Cavia porcellus [1] = species on record: Cavia porcellus; assay: Relative activity was measured in vitro with respect to substance P (SP) in guinea pig ileum; assay type: functional
Rattus norvegicus [2] = species on record: Rattus norvegicus; assay: Relative activity was measured in vitro with respect to substance P (SP) in rat colon muscularis mucosae; assay type: functional, Muscularis mucosa
Cavia porcellus [3] = species on record: Cavia porcellus; assay: Relative activity was measured in vitro with respect to substance P (SP) in guinea pig ileum at a concentration of 10 uM; Inactive; assay type: functional
Rattus norvegicus [4] = species on record: Rattus norvegicus; assay: Relative activity was measured in vitro with respect to substance P (SP) in rat colon muscularis mucosae at a concentration of 10 uM; Inactive; assay type: functional; conditions: Muscularis mucosa

Molecule	Relative activity (Cavia porcellus [1])	Relative activity (Rattus norvegicus [2])	Relative activity (Cavia porcellus [3])	Relative activity (Rattus norvegicus [4])
CC(C)C[C@H](NC(=O)CNC(=O)[C@H](Cc1ccccc1)NC(=O)[C@H](Cc1ccccc1)NC(=O)[C@@H](N)CCCN)C(=O)N[C@@H](CCC(=O)OCc1ccccc1)C(N)=O (H-[Orn]FFGLE(OBn)-NH2)	0.14	0.61	–	–
CC(C)C[C@H](NC(=O)CNC(=O)[C@H](Cc1ccccc1)NC(=O)[C@H](Cc1ccccc1)NC(=O)[C@@H](N)CCCN)C(=O)N[C@@H](CCC(=O)O)C(N)=O (H-[Orn]FFGLE-NH2)	0.00058	<0.01	–	–
CC(C)C[C@H](NC(=O)CNC(=O)[C@H](Cc1ccccc1)NC(=O)[C@H](Cc1ccccc1)NC(=O)[C@@H](N)CCCN)C(=O)N[C@@H](CCCCN)C(N)=O (H-[Orn]FFGLK-NH2)	–	–	inactive	inactive
CSCC[C@H](NC(=O)[C@H](CC(C)C)NC(=O)CNC(=O)[C@H](Cc1ccccc1)NC(=O)[C@H](Cc1ccccc1)NC(=O)[C@@H](N)CCCN)C(N)=O (H-[Orn]FFGLM-NH2)	0.39	0.36	–	–
CC(C)C[C@H](NC(=O)CNC(=O)[C@H](Cc1ccccc1)NC(=O)[C@H](Cc1ccccc1)NC(=O)[C@@H](N)CCCN)C(=O)N[C@@H](CCC(N)=O)C(N)=O (H-[Orn]FFGLQ-NH2)	0.0022	<0.01	–	–
H-QFFGLM-NH2	0.3	0.076	–	–
